Measured values: ChEMBL document CHEMBL1201862, “PubChem BioAssay data set” (2004)
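Assay format: 96-well plates, 48-hour exposure. Abbreviation: GI50, concentration required for 50% inhibition of growth.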 Calls of active or inactive are those of the source. No stated cut-off is given here; in the data, active = GI50 up to about 1.1 µM and inactive = higher.

What was measured:
Assay in all cases: NCI-60 cell line screen, 48 h
[1] = test system: OVCAR-5
[2] = test system: OVCAR-3
[3] = test system: SNB-78
[4] = test system: Malme-3M
[5] = test system: K562
[6] = test system: MCF7
[7] = test system: A549
[8] = test system: HOP-92
[9] = test system: CCRF-CEM
[10] = test system: SNB-19
[11] = test system: HOP-62
[12] = test system: HT-29
[13] = test system: NCI/ADR-RES
[14] = test system: OVCAR-4
[15] = test system: KM12
[16] = test system: UACC-257
[17] = test system: SR
[18] = test system: DU-145
[19] = test system: BT-549
[20] = test system: MDA-MB-435

Measured: GI50

CC12CCC(C(=O)N3CC=CCC3)(OC1=O)C2(C)C (stereo not given)
inactive: [1] > 100 µM | [2] > 100 µM | [3] > 100 µM | [4] > 100 µM | [5] > 100 µM | [6] > 100 µM | [7] > 100 µM | [8] > 100 µM | [9] > 82.8 µM | [10] > 100 µM | [11] > 100 µM | [12] > 100 µM | [13] > 100 µM | [14] > 100 µM | [15] > 100 µM | [16] > 100 µM

CCCCCCCSCC1OC(n2cnc3c(N)ncnc32)C(O)C1O (stereo not given)
inactive: [1] > 100 µM | [3] > 100 µM | [4] 49.3 µM | [5] 22.8 µM | [7] 31.8 µM | [8] 6.43 µM | [9] 39.4 µM | [10] 30.5 µM | [17] 10 µM | [12] 1.42 µM | [14] 21.8 µM | [15] 8.22 µM | [16] 18.3 µM

CCCC(=O)OCC1OC(n2ccc(N)nc2=O)C(OC(=O)CCC)C1OC(=O)CCC (stereo not given)
inactive: [1] 15.5 µM | [2] > 100 µM | [3] > 100 µM | [4] > 21.2 µM | [5] > 100 µM | [6] 8.09 µM | [7] 8.05 µM | [8] > 45.1 µM | [10] 24.8 µM | [12] 99.3 µM | [13] 68.9 µM | [14] > 100 µM | [15] > 100 µM | [16] > 31.7 µM
active: [9] 0.203 µM | [11] 0.0957 µM

CC(=O)C(CN(C)C)C(c1ccccc1)c1c(O)c2ccccc2oc1=O (stereo not given)
inactive: [1] > 100 µM | [2] > 100 µM | [3] > 100 µM | [4] > 100 µM | [5] > 100 µM | [7] > 100 µM | [8] 49.9 µM | [9] > 100 µM | [10] > 100 µM | [11] > 100 µM | [17] > 100 µM | [12] > 100 µM | [14] > 100 µM | [15] > 100 µM | [16] > 100 µM

O=C(CC(=O)c1ccccc1)CC(O)(c1ccccc1)c1ccccc1
inactive: [1] 11.3 µM | [2] 4.84 µM | [3] 21 µM | [4] 11 µM | [5] 2.47 µM | [8] 5.21 µM | [9] 3.37 µM | [10] 3.92 µM | [11] 3.34 µM | [17] 2.88 µM | [12] 10.4 µM | [14] 3.13 µM | [15] 7.76 µM | [16] 13.2 µM

COc1cc(Cc2cc(OC)c(OC)c(OC)c2)ccc1O
inactive: [1] > 100 µM | [2] 9.23 µM | [3] 40.6 µM | [4] 2.41 µM | [5] 3.61 µM | [7] 8.59 µM | [8] 19.3 µM | [9] 6.32 µM | [10] 23.9 µM | [11] 26.8 µM | [17] 6.08 µM | [12] 34.8 µM | [14] 82.2 µM | [15] 6.62 µM | [16] 22.4 µM

CN(C)CC1(Cc2ccccc2)CC/C(=C\c2ccccc2)C1=O (stereo not given)
inactive: [1] 40.6 µM | [2] 31.4 µM | [3] 52.2 µM | [4] 44 µM | [5] 29.4 µM | [7] 96.4 µM | [8] 51.4 µM | [9] 27 µM | [10] 22.2 µM | [11] > 100 µM | [17] 34 µM | [12] 20.7 µM | [14] 51.3 µM | [15] 40.3 µM | [16] 32.4 µM

C/N=c1\ss/c(=N\C(=S)N(C)C)n1-c1ccccc1
inactive: [1] > 100 µM | [2] > 100 µM | [3] 46 µM | [4] > 100 µM | [5] > 100 µM | [7] > 100 µM | [8] 39.5 µM | [9] > 100 µM | [10] > 52.7 µM | [11] > 80.7 µM | [17] > 100 µM | [12] > 31.6 µM | [14] > 100 µM | [15] > 100 µM | [16] > 100 µM

COC(=O)c1ccc(/N=N/N(C)COc2ccc(Br)cc2)cc1
inactive: [1] > 83.8 µM | [2] > 100 µM | [3] > 100 µM | [4] > 100 µM | [5] 38.1 µM | [6] > 58.3 µM | [7] 66.7 µM | [8] > 53 µM | [9] 34 µM | [10] > 100 µM | [11] > 100 µM | [12] 49.3 µM | [13] > 100 µM | [14] 54.2 µM | [15] 75.5 µM | [16] > 71.8 µM

Sc1nc(S)nc(Oc2ccc(Cl)c(Cl)c2)n1
inactive: [1] 59.2 µM | [2] 29.6 µM | [3] 34.4 µM | [4] > 47.2 µM | [5] 16.5 µM | [18] 57.9 µM | [6] 50.6 µM | [19] 57.8 µM | [7] 22.4 µM | [8] 19.2 µM | [9] 23.2 µM | [20] > 100 µM | [10] > 65.2 µM | [11] 40 µM | [17] 30.1 µM | [12] 49.5 µM | [13] 38 µM | [14] 41.1 µM | [15] 14.6 µM | [16] 43.7 µM

CC(C)Cc1cccc(C(C)C)c1NC(=O)CCC(=O)N/N=C1\C(=N/NC(=O)CCC(=O)Nc2c(C(C)C)cccc2C(C)C)C(c2ccc3c(c2)OCO3)Oc2ccccc21 (stereo not given)
inactive: [1] > 100 µM | [3] 94 µM | [5] 25 µM | [7] 65.3 µM | [8] > 100 µM | [9] 28.8 µM | [10] 91 µM | [11] 71.9 µM | [17] 55.7 µM | [12] 43.8 µM | [14] 74.1 µM | [15] > 100 µM | [16] > 100 µM

O=C(Cc1ccccc1)NN1C(=O)C(Cl)C1c1ccc(Cl)cc1 (stereo not given)
inactive: [1] > 100 µM | [2] > 100 µM | [3] > 100 µM | [4] > 100 µM | [5] 72.9 µM | [7] > 100 µM | [9] > 100 µM | [10] 69.8 µM | [11] > 100 µM | [17] 24.1 µM | [12] > 100 µM | [14] > 100 µM | [15] > 100 µM | [16] 86.3 µM

O=c1cc[nH]c2c1ccc1ncccc12
inactive: [1] > 100 µM | [2] > 100 µM | [3] > 100 µM | [4] > 100 µM | [5] > 100 µM | [7] > 100 µM | [9] > 100 µM | [10] > 100 µM | [11] > 100 µM | [17] > 100 µM | [12] > 100 µM | [14] > 100 µM | [15] > 100 µM | [16] > 100 µM

COC1(Cc2ccccc2)C(=O)c2ccccc2N1C(C)=O (stereo not given)
inactive: [2] > 100 µM | [3] > 100 µM | [5] > 100 µM | [7] > 100 µM | [8] > 100 µM | [9] > 100 µM | [10] > 100 µM | [11] > 100 µM | [17] > 100 µM | [12] > 100 µM | [14] > 100 µM | [15] > 100 µM | [16] > 100 µM

O=C(O)C(Cl)(Cl)Cl
inactive: [1] > 100 µM | [3] > 100 µM | [4] > 100 µM | [5] > 100 µM | [7] > 100 µM | [8] > 100 µM | [9] > 100 µM | [10] > 100 µM | [17] > 100 µM | [14] > 100 µM | [15] > 100 µM | [16] > 100 µM

COC(=O)C1=C(OC)c2cc3c(cc2C(c2cc(OC)c(OC)c(OC)c2)C1C(=O)OC)OCO3 (stereo not given)
inactive: [1] > 100 µM | [2] > 100 µM | [3] > 100 µM | [4] > 100 µM | [5] > 100 µM | [7] > 100 µM | [8] 48.9 µM | [9] > 100 µM | [11] > 100 µM | [17] 96.4 µM | [12] > 100 µM | [14] > 100 µM | [15] > 100 µM | [16] > 100 µM

CC#N.O[C@@H]1CCCC[C@@H]1O.O[C@@H]1CCCC[C@@H]1O.[TeH2]
inactive: [1] 16.3 µM | [2] 31.8 µM | [3] > 100 µM | [4] > 100 µM | [5] 18.7 µM | [7] 45.8 µM | [8] 26.1 µM | [9] 11.6 µM | [10] 33.1 µM | [11] 41.7 µM | [17] 21.1 µM | [12] 33.4 µM | [14] 31.8 µM | [15] 50.8 µM | [16] 54.3 µM
